Measurements reported in US20250236616A1, “IMMUNOMODULATING AZALIDES” (Zoetis Services LLC, priority 2021, published 2025).
Entries after “also recorded” stand apart in the source; their conditions may differ.

Columns and labels:
H. somni = assay: MIC, H. somni strains; format: cell-based; conditions: lung isolates at necropsy, natural BRD study, n=25
Source text: Primary screening of the compounds of the invention included the evaluation of antibacterial activity of analogs through determination of microbial inhibition concentration (MIC) as per CLSI guidelines. The screening panel included the relevant BRD pathogens: 1) M. haemolytica (e.g., 12726, 46571 and 49023, all AHDRCC; and 33396 (ATCC)); and 2) P. multocida (e.g., 34135 and 46572 (both AHDRCC) and 43137 (ATCC)). In some instances, H. somni (A700025K) pathogens were also included in the screening panel. The AHDRCC strains originated from the Zoetis BRD/SRD surveillance program and refer to the Animal Health Development and Research Culture Collection. In addition, the screen assessed S. aureus (29213 ATCC) as a representative Gram-positive isolate, E.faecalis (19433 ATCC) as a commensal gram-positive gastrointestinal bacterium and E. coli (100, 3110 and 25922 (ATCC)) for the evaluation of efflux potential. The screening panel BRD pathogens were assessed in determining antibacterial activity of the Formula (1) compounds.
All relevant BRD pathogens were initially screened at a top concentration of 64 μg/mL of a Formula (1) compound in an eleven-point dilution series. […] If an Example was purified further, the MICs moved […] essentially two dilutions across all strains tested in the screening panel.
In-Vitro MIC Model Compounds were analyzed for antibacterial activity against a panel of animal health specific gram-positive and gram-negative clinical strains by diluting compounds in DMSO to an appropriate stock concentration to determine the Minimal Inhibitory Concentration (MIC) via a semi-automated broth micro-dilution method (CLSI reference method) with QC strains and anti-microbial agent(s). Specifically, bacteria were grown overnight on TSA w/5% sheep blood agar plates and diluted in saline buffer to a McFarland Standard 0.5, then further diluted in cation-ion adjusted Mueller Hinton Broth to a final concentration of approximately 5×10^5 CFU/mL. 100 μL of inoculated media was added to 96-well plate(s) with 3 μL of serially diluted compound in each row. Depending on strain (see CLSI reference method), bacteria were incubated 18-22 hours at 35-37° C. in ambient air, with 5% CO2 or anaerobically (up to 48 hours).

[1] = PK study, plasma concentration; format: in vivo; conditions: 10 mg/kg dose
Protocol: The primary clinical endpoint for efficacy was treatment failure/success over a 14-day observation period. Clinically normal beef calves (150-200 kg) at moderate risk for BRD were dosed on arrival to the feedlot. Animals (N=114/group) received saline (T01), 5 mg/kg M9 (T02) or 10 mg/kg M9 (T03); or Zactran (T04).

IL-6 = IL-6 biomarker in bovine M. haemolytica challenge; format: in vivo
Protocol: Cytokine Detection—An MSD U-Plex cytokine assay was developed following the MSD U-Plex protocol guide and included biotinylated capture antibodies against: bovine Interleukin (IL)-1β (Biorad), bovine IL-6 (R&D Systems) and bovine tumor necrosis factor (TNF)-α (R&D Systems). The anti-IL-1β antibody was biotinylated using EZ-Link Sulfo-NHS-Biotin (Thermo Scientific) at a challenge ratio of 1:20 according to manufacturer instructions. Assay calibrators (Kingfisher) were diluted to a concentration of […] in control lithium heparin plasma, followed by 4-fold serial dilutions into plasma. The detection antibodies were sulfo-tagged following the MSD quick guide conjugation protocol using a challenge ratio of 1:20. Antibodies were used at the following concentrations: anti-IL-1β at 1 μg/mL, anti-IL-6 at 1 μg/mL and anti-TNF-α at 0.5 μg/mL. Cytokines were quantified according to manufacturer's instructions using a chemiluminescent readout. In brief, 0.5 mL of all biotinylated antibodies were diluted to 10 μg/mL with Diluent 100 and paired to their respective linkers by adding 750 μL of supplied Linker solution and incubated for 30 minutes followed by addition of Stop solution for another 30 minutes. […] Plates were washed a further three times before addition of 150 μL 2X Read buffer and read immediately on the SI6000 instrument (MSD). […]

CD163 = CD163 expression by flow cytometry, cattle; format: in vivo, bovine; conditions: monocytes/macrophages of whole blood
Protocol: CD163 Expression by Flow Cytometry-Fresh whole bovine blood samples were collected into EDTA vacutainer tubes, placed on ice and processed within two hours of collection. Blood was placed in 96 well round bottom plates at 30 μL per well, 5 μL of goat serum was added as a blocking reagent and the plate was rocked at 4° C. for approximately 15 minutes. To label cells, 10 μL of a master mix panel of antibodies including anti-CD14 (BioLegend #301854), anti-CD172a (BioRad #MCA2041C), anti-CD163 (Kingfisher #WSC0832B-100) and anti-CD16 (BioRad #MCA5665F), was added to the samples and returned to 4° C. (protected from light) for 30 minutes. Single stain controls were included for use in fluorescence compensation matrices. Red blood cells were removed by adding 200 μL of lysis buffer and incubating for 10 minutes at room temperature while rocking. The plate was then centrifuged at 270×g for three minutes and supernatant removed. This step was repeated until supernatant was clear. 200 μL of FACS buffer was added to each well to wash cells, centrifuged as above, resuspended in 80 μL of FACS buffer and read immediately on a digital FACS Canto II HTS (BD Bioscience) flow cytometer. Data was analyzed using FlowJo software (BD Bioscience). Macrophage subpopulations were determined using CD172, CD14, CD16 markers and assessed for expression of CD163. […]

## CCCNC[C@]1(O)[C@H](C)O[C@@H](O[C@H]2[C@H](C)[C@@H](O[C@@H]3O[C@H](C)C[C@H](NC)[C@H]3O)[C@](C)(O)C[C@@H](C)CN[C@H](C)[C@@H](O)[C@](C)(O)[C@@H](CC)OC(=O)[C@@H]2C)C[C@@]1(C)OC [Example M9, (2R,3S,4R,5R,8R,10R,11R,12S,13S,14R)-2-ethyl-3,4, 10-trihydroxy-13-(((2R,4R,5S,6S)-5-hydroxy-4-methoxy-4,6-dimethyl-5-((propylamino)methyl)-tetrahydro-2H-pyran-2-yl)oxy)-11-(((2S,3R,4S,6R)-3-hydroxy-6-methyl-4-(methylamino)tetrahydro-2H-pyran-2-yl)oxy)-3,5,8,10,12,14-hexamethyl-1-oxa-6-azacyclopentadecan-15-one]
H. somni
  MIC Range: 8 to 64 µg/mL
[1]
  maximum plasma concentration: 5 µg/mL
IL-6
  IL-6 levels: significantly reduced IL-6 levels
CD163
  CD163 expression: suppressed; also recorded: mitigates the pathologic increase in CD163 expression
